Test results from patent publication US5330989A, “Heterocycles substituted with biphenyl-3-cyclobutene-1,2-dione derivatives” (American Home Products Corporation, priority 1992, dated 1994).

Test system: A II-infused rat
Assay: A II-infused rat model, antihypertensive activity (arterial pressure)
Type: in vivo
Settings: 3 mg/kg id (duodenal cannula); four hours post-administration; mecamylamine ganglion blockade; A II infusion […]
Procedure: In accordance with their ability to antagonize angiotensin II, the compounds of this invention show antihypertensive activity in the following A II-infused rat model. Rats are anesthetized with Dial-Urethane(0.60 mL/kg, ip) and the trachea cannulated with PE 240. Either one femoral artery and both femoral veins or the carotid artery and the corresponding jugular vein are cannulated with PE 50. If the jugular vein is cannulated, two cannulas are placed in the one vein. The initial portion of the duodenum (just distal to the stomach) is cannulated with PE 50 via a small midline incision. Arterial pressure and heart rate are measured from the arterial cannula. Ten to 15 min are allowed following surgery for stabilization of arterial pressure. Ganglion blockage is then produced by intravenous administration of mecamylamine at 3 mg/kg (1 mL/kg of a 3 mg/mL solution). Ganglion blockade causes a fall in arterial pressure of about 50 mmHg. Mecamylamine is given every 90 min throughout the remainder of the experiment. An A II infusion is then begun into the other venous cannula at 0.25 μg/kg/min (at 9.6 μL/min). The A II infusion returns arterial pressure to or slightly above the control level. Once arterial pressure has stabilized with the A II infusion, baseline values for mean arterial pressure (MAP) and heart rate are taken. […]

For `O=c1c(O)c(-c2ccccc2-c2ccc(CNc3nc(C(F)(F)F)nc4c3CCCC4)cc2)c1=O` [Example 1, 3-hydroxy-4-[4'-[[[5,6,7,8-tetrahydro-2-(trifluoromethyl)-4-quinazolinyl]amino]methyl][1,1'-biphenyl]-2-yl]-3-cyclobutene-1,2-dione], the “average lowering of the A II dependent blood pressure” value was 52%.
